Where a name gives a salt, the structure may show the parent alone.

One series deals with nictitating-membrane. The experiment in a line: Adrenaline stimulated nictitating-membrane of anesthetized cats (peripheral vasodilation). The class given is in vivo. The following applies: for change in adrenaline-induced nictitating-membrane contraction: anesthetized cats, 0.01 mg Adrenaline i.v.; for effectiveness compared to Compound A (nictitating-membrane): in words, from Table II. How it is done: a. Adrenaline stimulated nictitating-membrane of anesthetized cats
This experiment is a classical model for the measurements of a peripheral vasodilation. Male and female cats have been anesthetized with pentobarbital. After tracheotomy the contraction of the nictitating-membrane was recorded by means of a strain-gauge. As stimulating agent 0.01 mg Adrenaline has been administered intravenously in intervals of 10 minutes.

Series [1] in a line: Acute toxicity, 7-day test, method of Litchfield and Wilcoxon. The following applies: mouse, in vivo, mice. An excerpt:
The toxicity has been determined in a 7-day test with NMRI-mice having an average body weight of 18 to 26 g according to the method of Litchfield and Wilcoxon.

The next series concerns isolated rabbit ears. The experiment in a line: Isolated rabbit ears, Pissensky's method (increased number of drops). How it is done:
b. Experiments on isolated rabbit ears
Male and female rabbits were killed 15 minutes after administration of heparine. Both ears were then cut off at the bases and examined according to Pissensky's method. The overflowing drops were measured by means of an electronic drop counter.

The conditions of series [2]: prior art, cited from earlier work.

As to `Cc1cc(OCCN(C)C)c(C(C)C)cc1OC(=O)OC(C)C` [Compound 1, (4-Isopropoxycarboxy-thymyl)-(2'-dimethylaminoathyl)-ether.HCl], the “change in adrenaline-induced nictitating-membrane contraction” value (“change” for short) in the series on nictitating-membrane (0.025 mg/kg i.v.) is given as ~ 60%; with nictitating-membrane (0.5 mg/kg i.v.), 100%; with nictitating-membrane (2 mg/kg i.v.), “absolute in-”. For the same compound, in the series on nictitating-membrane, the “effectiveness compared to Compound A (nictitating-membrane)” value was “much more effective than Compound A”. Also, the LD50 at 168 h in series [1] (iv) was 44 mg/kg; in series [1] (po, i.g.) it was 272 mg/kg; in series [1] (sc), 210 mg/kg. Besides, the “Increased number of drops measured in the isolated rabbit ear” value (“Increased number of drops measured” for short) with isolated rabbit ears (0,5 mg) is given as ~ 20%; with isolated rabbit ears (1 mg), 34%; with isolated rabbit ears (2 mg), 58%; in the series on isolated rabbit ears (4 mg), 139%; with isolated rabbit ears (0,025 mg) it was ~ 10%. The “action on the vessels of isolated rabbit ears” value in the series on isolated rabbit ears (in words, from Table III) is listed as “unexpected action on the vessels of isolated rabbit ears”.
For `CCCCCCCCCC(=O)Oc1cc(C(C)C)c(OCCN(C)C)cc1C` [Compound 2, (4-Caprinyloxy-thymyl)-(2'-dimethylaminoathyl)-ether.HCl], the “change” value is recorded as ~ 10% in the series with nictitating-membrane (0.025 mg/kg i.v.), ~ 50% in the series with nictitating-membrane (0.5 mg/kg i.v.) and 80% in the series with nictitating-membrane (2 mg/kg i.v.). For the same compound, the “effectiveness compared to Compound A (nictitating-membrane)” value with nictitating-membrane is reported as “much more effective than Compound A”. Also, the LD50 at 168 h in series [1] (iv) worked out at 96 mg/kg; in series [1] (po, i.g.), 1020 mg/kg; in series [1] (sc), 1550 mg/kg. The “Increased number of drops measured” value is listed as 10% with isolated rabbit ears (0,5 mg); 27% in the series on isolated rabbit ears (1 mg); 68% in the series with isolated rabbit ears (2 mg); ~ 80% in the series with isolated rabbit ears (4 mg); 15% with isolated rabbit ears (0,025 mg).
Turning to `CCCCCCCC(=O)Oc1cc(C(C)C)c(OCCN(C)C)cc1C` [Compound 3, (4-Capryloxy-thymyl)-(2'-dimethylaminoathyl)-ether.HCl], the “change” value was ~ 30% in the series on nictitating-membrane (0.025 mg/kg i.v.), 80% with nictitating-membrane (0.5 mg/kg i.v.) and 100% in the series on nictitating-membrane (2 mg/kg i.v.). Also, the “effectiveness compared to Compound A (nictitating-membrane)” value with nictitating-membrane is reported as “much more effective than Compound A”. Moreover, the LD50 at 168 h amounted to 25 mg/kg in series [1] (iv) and 400 mg/kg in series [1] (po, i.g.). Further, the “Increased number of drops measured” value with isolated rabbit ears (0,5 mg) is listed as 80%; in the series with isolated rabbit ears (0,025 mg), ~ 40%.
As for `CC(=O)Oc1cc(C(C)C)c(OCCN(C)C)cc1C` [Compound A, reference compound], the entries for the “change” value with nictitating-membrane (0.025 mg/kg i.v.), with nictitating-membrane (0.5 mg/kg i.v.) and with nictitating-membrane (2 mg/kg i.v.) were 0%, 0% and 50%, respectively. The duration of action result in series [2] is “short duration of action”. Besides, the absorbability result in series [2] (thymoxamine) is “low absorbability”. The toxicity entry in series [2] (thymoxamine) was “relative toxicity”. The LD50 at 168 h in series [1] (iv) came to 48 mg/kg; in series [1] (po, i.g.), 193 mg/kg; in series [1] (sc), 156 mg/kg. The “Increased number of drops measured” value turned out to be 15% in the series with isolated rabbit ears (0,5 mg); 15% in the series on isolated rabbit ears (1 mg); 16% with isolated rabbit ears (2 mg); 16% in the series on isolated rabbit ears (4 mg); 14% with isolated rabbit ears (0,025 mg).

The values above are taken from US3966779A, “Thymol derivatives and a process for their preparation” (priority 1974, dated 1976).
